Measured values: ChEMBL document CHEMBL1141791, “A cytotoxic sesquiterpene alkaloid from the South China Sea gorgonian Subergorgia suberosa” (J Nat Prod, 2005)
Values after ≈ are worked out from the molar mass of the structure shown.

Tested on: MDA-MB-231
Assay: Cytotoxicity against human MDA-MB-231 cells by MTT method
Type: functional, cell-based

C[C@H]1CC[C@H]2[C@H]3CC(=O)[C@H](Cn4c(O)nc5c(O)ncnc54)[C@]31CC2(C)C
IC50: 8.87 µg/mL (≈ 23.9 µM)
